From ChEMBL document CHEMBL5715954, “Silencing c-Myc translation as a therapeutic strategy through targeting PI3Kδ and CK1ε in hematological malignancies” (Blood, 2017)

Tests used:
Design in all cases: scale not given: the % may be the effect or the level left
[1] = molecular target: T1, NUAK family SNF1-like kinase 1 (Homo sapiens) (UniProt O60285); test: Inhibition of human ARK5 assessed as enzyme activity at 1 uM using KKKVSRSGLYRSPSMPENLNRPR as substrate preincubated for 20 mins followed by [gamma-33P]-ATP addition and measured after 120 mins by radiometric Hot-SpotSM Kinase assay relative to control
T1 sequence (whole entry): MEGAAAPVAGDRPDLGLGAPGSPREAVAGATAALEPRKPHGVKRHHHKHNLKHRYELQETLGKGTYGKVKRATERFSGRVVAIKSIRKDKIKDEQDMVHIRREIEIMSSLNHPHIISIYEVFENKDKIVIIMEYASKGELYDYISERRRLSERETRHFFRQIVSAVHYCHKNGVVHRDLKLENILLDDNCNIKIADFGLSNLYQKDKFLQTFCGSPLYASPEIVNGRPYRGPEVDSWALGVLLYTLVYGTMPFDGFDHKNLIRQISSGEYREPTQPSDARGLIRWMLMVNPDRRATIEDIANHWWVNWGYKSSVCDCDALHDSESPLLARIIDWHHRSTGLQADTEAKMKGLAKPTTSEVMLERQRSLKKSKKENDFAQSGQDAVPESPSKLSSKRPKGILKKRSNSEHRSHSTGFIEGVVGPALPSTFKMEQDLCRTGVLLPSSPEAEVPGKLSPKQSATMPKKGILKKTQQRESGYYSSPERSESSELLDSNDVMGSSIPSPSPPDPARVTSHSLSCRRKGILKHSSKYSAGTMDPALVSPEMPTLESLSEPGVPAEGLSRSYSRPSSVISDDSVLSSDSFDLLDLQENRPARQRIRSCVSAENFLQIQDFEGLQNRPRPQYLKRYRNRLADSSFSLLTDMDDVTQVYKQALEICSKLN

[2] = molecular target: CDC7/DBF4 (Cell division cycle 7-related protein kinase/Activator of S phase kinase) (Homo sapiens) (UniProt Q9UBU7+O00311); test: Inhibition of human CDC7/DBF4 assessed as enzyme activity at 1 uM using KTFCGTPEYLAPEVRREPRILSEEEQEMFRDFDYIADWC as substrate preincubated for 20 mins followed by [gamma-33P]-ATP addition and measured after 120 mins by radiometric Hot-SpotSM Kinase assay relative to control; assay type: protein-complex assay
[3] = molecular target: Cyclin-dependent kinase 4/cyclin D1 (Homo sapiens) (UniProt P11802+P24385); test: Inhibition of human CDK4/cyclin D1 assessed as enzyme activity at 1 uM using RB Protein as substrate preincubated for 20 mins followed by [gamma-33P]-ATP addition and measured after 120 mins by radiometric Hot-SpotSM Kinase assay relative to control; assay type: protein-complex assay
[4] = molecular target: Tyrosine-protein kinase Fer (Homo sapiens) (UniProt P16591); test: Inhibition of human FER assessed as enzyme activity at 1 uM using poly[Glu:Tyr] (4:1) as substrate preincubated for 20 mins followed by [gamma-33P]-ATP addition and measured after 120 mins by radiometric Hot-SpotSM Kinase assay relative to control
[5] = molecular target: Insulin receptor-related protein (Homo sapiens) (UniProt P14616); test: Inhibition of human IRR assessed as enzyme activity at 1 uM using myelin basic protein as substrate preincubated for 20 mins followed by [gamma-33P]-ATP addition and measured after 120 mins by radiometric Hot-SpotSM Kinase assay relative to control
[6] = molecular target: Myosin light chain kinase 2, skeletal/cardiac muscle (Homo sapiens) (UniProt Q9H1R3); test: Inhibition of human MLCK2 assessed as enzyme activity at 1 uM using KKLNRTLSFAEPG as substrate preincubated for 20 mins followed by [gamma-33P]-ATP addition and measured after 120 mins by radiometric Hot-SpotSM Kinase assay relative to control
[7] = molecular target: Inactive tyrosine-protein kinase PEAK1 (Homo sapiens) (UniProt Q9H792); test: Inhibition of human PEAK1 assessed as enzyme activity at 1 uM using poly[Glu:Tyr] (4:1) as substrate preincubated for 20 mins followed by [gamma-33P]-ATP addition and measured after 120 mins by radiometric Hot-SpotSM Kinase assay relative to control
[8] = molecular target: Serine/threonine-protein kinase N1 (Homo sapiens) (UniProt Q16512); test: Inhibition of human PKN1 assessed as enzyme activity at 1 uM using KKLNRTLSVA as substrate preincubated for 20 mins followed by [gamma-33P]-ATP addition and measured after 120 mins by radiometric Hot-SpotSM Kinase assay relative to control
[9] = molecular target: T2, Serine/threonine-protein kinase Sgk3 (Homo sapiens) (UniProt Q96BR1); test: Inhibition of human SGK3 assessed as enzyme activity at 1 uM using GRPRTSSFAEG as substrate preincubated for 20 mins followed by [gamma-33P]-ATP addition and measured after 120 mins by radiometric Hot-SpotSM Kinase assay relative to control
T2 sequence (whole entry): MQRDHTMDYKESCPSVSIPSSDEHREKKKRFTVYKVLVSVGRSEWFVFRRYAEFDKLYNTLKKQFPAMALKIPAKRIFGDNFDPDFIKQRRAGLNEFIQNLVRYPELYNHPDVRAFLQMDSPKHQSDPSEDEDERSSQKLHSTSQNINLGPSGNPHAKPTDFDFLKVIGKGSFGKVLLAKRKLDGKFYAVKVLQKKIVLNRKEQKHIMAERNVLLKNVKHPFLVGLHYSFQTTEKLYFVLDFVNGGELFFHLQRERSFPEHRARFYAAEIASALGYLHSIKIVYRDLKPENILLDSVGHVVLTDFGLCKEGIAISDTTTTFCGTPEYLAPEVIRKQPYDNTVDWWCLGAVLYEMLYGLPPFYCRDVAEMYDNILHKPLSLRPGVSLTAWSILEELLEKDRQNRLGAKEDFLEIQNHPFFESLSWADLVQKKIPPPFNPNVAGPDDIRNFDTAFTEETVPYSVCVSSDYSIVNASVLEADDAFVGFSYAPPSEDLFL

[10] = molecular target: Serine/threonine-protein kinase 16 (Homo sapiens) (UniProt O75716); test: Inhibition of human STK16 assessed as enzyme activity at 1 uM using myelin basic protein as substrate preincubated for 20 mins followed by [gamma-33P]-ATP addition and measured after 120 mins by radiometric Hot-SpotSM Kinase assay relative to control
Sequence of Serine/threonine-protein kinase 16 (Homo sapiens) (O75716 whole entry): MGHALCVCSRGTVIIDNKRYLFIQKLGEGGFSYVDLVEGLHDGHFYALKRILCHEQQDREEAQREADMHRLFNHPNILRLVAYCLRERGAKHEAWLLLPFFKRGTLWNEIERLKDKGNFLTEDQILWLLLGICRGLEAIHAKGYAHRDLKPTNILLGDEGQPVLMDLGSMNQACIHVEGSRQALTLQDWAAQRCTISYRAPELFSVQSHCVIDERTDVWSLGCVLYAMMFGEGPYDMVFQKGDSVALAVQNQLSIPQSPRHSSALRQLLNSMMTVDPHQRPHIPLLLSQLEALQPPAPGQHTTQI

Sequence of Myosin light chain kinase 2, skeletal/cardiac muscle (Homo sapiens) (Q9H1R3 whole entry): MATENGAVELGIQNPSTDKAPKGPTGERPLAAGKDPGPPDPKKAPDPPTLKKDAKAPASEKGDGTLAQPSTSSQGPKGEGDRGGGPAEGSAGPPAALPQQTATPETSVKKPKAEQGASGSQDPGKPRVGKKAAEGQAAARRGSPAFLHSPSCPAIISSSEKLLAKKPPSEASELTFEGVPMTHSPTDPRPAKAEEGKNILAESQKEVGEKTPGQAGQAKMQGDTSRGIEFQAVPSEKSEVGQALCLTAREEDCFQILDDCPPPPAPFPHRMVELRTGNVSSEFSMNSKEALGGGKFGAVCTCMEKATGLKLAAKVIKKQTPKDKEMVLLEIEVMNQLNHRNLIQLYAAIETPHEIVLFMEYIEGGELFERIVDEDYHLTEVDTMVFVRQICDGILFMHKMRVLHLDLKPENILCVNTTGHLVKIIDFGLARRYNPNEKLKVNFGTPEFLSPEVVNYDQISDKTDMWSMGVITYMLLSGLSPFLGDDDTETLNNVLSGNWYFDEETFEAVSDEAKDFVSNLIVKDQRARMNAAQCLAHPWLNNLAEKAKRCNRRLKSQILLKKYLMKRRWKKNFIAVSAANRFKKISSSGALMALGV
Sequence of CDC7/DBF4 (Cell division cycle 7-related protein kinase/Activator of S phase kinase) (Homo sapiens) (O00311 whole entry, looked up): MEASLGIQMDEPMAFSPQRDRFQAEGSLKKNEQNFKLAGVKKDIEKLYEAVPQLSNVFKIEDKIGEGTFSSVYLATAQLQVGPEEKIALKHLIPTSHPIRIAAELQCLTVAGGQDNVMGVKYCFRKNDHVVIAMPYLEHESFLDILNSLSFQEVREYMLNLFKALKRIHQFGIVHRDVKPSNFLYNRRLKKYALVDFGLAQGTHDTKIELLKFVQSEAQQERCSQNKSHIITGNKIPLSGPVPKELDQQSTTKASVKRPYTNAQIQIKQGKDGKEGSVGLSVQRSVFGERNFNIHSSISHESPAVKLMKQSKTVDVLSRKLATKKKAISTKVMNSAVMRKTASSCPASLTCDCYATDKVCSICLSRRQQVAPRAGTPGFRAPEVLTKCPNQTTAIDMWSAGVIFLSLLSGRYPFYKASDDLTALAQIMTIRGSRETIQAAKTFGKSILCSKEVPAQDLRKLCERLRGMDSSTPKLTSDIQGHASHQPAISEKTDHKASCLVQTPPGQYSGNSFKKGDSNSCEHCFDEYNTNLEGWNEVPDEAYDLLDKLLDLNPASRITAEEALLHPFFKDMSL
Sequence of CDC7/DBF4 (Cell division cycle 7-related protein kinase/Activator of S phase kinase) (Homo sapiens) (Q9UBU7 whole entry, looked up): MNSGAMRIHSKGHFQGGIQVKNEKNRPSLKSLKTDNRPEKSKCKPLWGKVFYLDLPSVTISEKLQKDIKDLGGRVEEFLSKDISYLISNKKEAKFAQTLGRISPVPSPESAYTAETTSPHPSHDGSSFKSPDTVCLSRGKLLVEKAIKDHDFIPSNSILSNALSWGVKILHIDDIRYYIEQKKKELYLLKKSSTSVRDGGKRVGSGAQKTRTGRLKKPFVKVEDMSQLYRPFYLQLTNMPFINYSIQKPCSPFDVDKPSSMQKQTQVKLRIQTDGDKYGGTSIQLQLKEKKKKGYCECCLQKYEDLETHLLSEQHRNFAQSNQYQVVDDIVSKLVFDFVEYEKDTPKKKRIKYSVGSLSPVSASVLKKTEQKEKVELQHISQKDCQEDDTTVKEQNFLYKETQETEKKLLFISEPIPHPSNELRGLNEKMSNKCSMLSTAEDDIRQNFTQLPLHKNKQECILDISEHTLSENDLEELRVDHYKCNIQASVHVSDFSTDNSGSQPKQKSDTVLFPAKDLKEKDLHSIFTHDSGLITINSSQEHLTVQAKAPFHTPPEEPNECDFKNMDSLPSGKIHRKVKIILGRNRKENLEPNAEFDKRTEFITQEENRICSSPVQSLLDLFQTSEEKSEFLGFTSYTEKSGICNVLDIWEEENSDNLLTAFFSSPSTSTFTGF
Sequence of Inactive tyrosine-protein kinase PEAK1 (Homo sapiens) (Q9H792 whole entry): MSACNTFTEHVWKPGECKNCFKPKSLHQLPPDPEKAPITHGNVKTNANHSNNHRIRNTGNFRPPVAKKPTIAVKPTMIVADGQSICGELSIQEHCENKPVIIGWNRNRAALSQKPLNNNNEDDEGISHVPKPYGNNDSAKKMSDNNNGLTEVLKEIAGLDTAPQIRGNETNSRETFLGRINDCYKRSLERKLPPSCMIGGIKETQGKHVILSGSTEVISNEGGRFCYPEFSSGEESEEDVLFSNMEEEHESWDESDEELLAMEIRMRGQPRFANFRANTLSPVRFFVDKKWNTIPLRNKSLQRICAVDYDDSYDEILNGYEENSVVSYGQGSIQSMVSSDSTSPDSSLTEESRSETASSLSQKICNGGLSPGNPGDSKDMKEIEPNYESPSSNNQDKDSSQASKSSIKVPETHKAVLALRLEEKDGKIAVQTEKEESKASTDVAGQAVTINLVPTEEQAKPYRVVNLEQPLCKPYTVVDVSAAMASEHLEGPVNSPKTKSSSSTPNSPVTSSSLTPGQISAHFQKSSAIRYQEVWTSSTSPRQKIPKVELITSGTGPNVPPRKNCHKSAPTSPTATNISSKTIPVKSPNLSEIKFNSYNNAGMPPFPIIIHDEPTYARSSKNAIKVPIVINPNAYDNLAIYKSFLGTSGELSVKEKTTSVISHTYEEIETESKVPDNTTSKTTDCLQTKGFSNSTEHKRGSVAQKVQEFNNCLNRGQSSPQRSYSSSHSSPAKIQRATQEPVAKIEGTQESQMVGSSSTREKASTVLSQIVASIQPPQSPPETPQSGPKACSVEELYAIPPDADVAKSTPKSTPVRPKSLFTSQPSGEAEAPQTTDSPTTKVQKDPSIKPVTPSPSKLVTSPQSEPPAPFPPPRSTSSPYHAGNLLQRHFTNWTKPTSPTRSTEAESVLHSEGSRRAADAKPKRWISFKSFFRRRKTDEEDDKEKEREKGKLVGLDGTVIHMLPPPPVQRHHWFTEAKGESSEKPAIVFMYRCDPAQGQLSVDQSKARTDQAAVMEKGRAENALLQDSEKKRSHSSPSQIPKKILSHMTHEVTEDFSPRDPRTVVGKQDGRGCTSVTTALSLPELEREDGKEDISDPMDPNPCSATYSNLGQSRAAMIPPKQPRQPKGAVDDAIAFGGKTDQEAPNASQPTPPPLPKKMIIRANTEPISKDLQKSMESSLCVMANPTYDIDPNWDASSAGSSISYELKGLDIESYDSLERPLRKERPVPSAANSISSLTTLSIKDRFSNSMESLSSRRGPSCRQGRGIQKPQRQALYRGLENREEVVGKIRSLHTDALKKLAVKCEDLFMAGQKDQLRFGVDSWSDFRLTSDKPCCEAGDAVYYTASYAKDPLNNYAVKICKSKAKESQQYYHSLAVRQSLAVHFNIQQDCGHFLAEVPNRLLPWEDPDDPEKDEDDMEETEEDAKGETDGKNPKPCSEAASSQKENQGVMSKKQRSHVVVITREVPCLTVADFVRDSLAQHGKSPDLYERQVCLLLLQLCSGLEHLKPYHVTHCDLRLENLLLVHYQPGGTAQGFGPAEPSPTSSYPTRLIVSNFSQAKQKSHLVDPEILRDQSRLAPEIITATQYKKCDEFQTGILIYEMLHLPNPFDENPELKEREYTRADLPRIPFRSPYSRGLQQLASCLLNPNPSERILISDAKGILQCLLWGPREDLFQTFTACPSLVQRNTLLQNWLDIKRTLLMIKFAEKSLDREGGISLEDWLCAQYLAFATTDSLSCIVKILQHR
Sequence of Serine/threonine-protein kinase N1 (Homo sapiens) (Q16512 2-942 limits assumed): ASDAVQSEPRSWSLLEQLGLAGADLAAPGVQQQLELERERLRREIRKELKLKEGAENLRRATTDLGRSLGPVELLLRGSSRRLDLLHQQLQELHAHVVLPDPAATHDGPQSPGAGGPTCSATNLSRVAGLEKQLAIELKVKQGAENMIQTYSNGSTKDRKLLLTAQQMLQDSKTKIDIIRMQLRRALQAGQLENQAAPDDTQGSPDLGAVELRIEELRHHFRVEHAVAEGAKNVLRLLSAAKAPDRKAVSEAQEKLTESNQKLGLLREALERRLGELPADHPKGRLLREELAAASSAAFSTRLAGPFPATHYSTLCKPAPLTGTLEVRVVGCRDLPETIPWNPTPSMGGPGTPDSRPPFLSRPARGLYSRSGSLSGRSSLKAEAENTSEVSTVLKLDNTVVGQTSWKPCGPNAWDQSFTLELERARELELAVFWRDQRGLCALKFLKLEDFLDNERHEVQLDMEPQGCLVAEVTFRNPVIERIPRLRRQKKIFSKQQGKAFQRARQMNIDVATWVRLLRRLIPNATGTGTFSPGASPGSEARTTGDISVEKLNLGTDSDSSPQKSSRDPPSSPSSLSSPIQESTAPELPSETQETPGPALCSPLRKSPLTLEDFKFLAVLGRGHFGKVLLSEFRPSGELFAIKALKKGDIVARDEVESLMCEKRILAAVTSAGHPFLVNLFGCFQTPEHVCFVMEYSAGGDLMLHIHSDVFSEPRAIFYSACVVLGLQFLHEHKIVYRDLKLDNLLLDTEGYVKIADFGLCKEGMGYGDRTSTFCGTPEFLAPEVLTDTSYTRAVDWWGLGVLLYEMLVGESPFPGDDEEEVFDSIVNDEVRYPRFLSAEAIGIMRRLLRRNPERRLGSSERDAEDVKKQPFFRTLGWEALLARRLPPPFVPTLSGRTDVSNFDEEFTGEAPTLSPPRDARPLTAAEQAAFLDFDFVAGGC

## CC[C@H](Nc1ncnc2[nH]cnc12)c1nc2cccc(F)c2c(=O)n1-c1ccccc1
[1]
  Activity: 102%
[2]
  Activity: 91.6%
[3]
  Activity: 108%
[4]
  Activity: 97.2%
[5]
  Activity: 93.9%
[6]
  Activity: 98.7%
[7]
  Activity: 93.3%
[8]
  Activity: 90.5%
[9]
  Activity: 97.2%
[10]
  Activity: 105%

## C[C@H](Nc1ncnc2nc[nH]c12)c1cc2cccc(Cl)c2c(=O)n1-c1ccccc1
[1]
  Activity: 95%
[2]
  Activity: 93.8%
[3]
  Activity: 110%
[4]
  Activity: 91.7%
[5]
  Activity: 95.9%
[6]
  Activity: 100%
[7]
  Activity: 89.4%
[8]
  Activity: 84%
[9]
  Activity: 97.3%
[10]
  Activity: 106%

## CC(C)Oc1ccc(-c2nn([C@@H](C)c3oc4ccc(F)cc4c(=O)c3-c3cccc(F)c3)c3ncnc(N)c23)cc1F [UMBRALISIB]
[1]
  Activity: 97.8%
[2]
  Activity: 92%
[3]
  Activity: 104%
[4]
  Activity: 94.5%
[5]
  Activity: 96.4%
[6]
  Activity: 101%
[7]
  Activity: 95%
[8]
  Activity: 92.8%
[9]
  Activity: 98.7%
[10]
  Activity: 108%
